# pKi: −log10 of the molar value.
# Molecular target: T1, histamine-3 receptor (Rattus norvegicus, UniProt Q9QYN8)
# T1 construct: from tissue; host or cells: male Sprague-Dawley rat brain cortex membranes
# Experiment: Histamine-3 receptor binding, (3H)-N-α-methylhistamine displacement in rat cortical membranes
# Conditions: male Sprague-Dawley rat brain cortical membranes; (3H)-N-α-methylhistamine ~0.6 nM; 30 minutes at 25° C.; Cheng-Prusoff
# Experimental: Briefly, male Sprague-Dawley rat brain cortices were homogenized (1 g tissue/10 mL buffer) in 50 mM Tris-HCl/5 mM EDTA containing protease inhibitor cocktail (Calbiochem) using a polytron set at 20,500 rpm. Homogenates were centrifuged for 20 minutes at 40,000×g. The supernatant was decanted, and pellets were weighed. The pellet was resuspended by polytron homogenization in 40 mL 50 mM Tris-HCl/5 mM EDTA with protease inhibitors and centrifuged for 20 minutes at 40,000×g. […] Test compounds were dissolved in DMSO to provide 20 mM solution, serially diluted and then added to the incubation mixtures prior to initiating the incubation assay by addition of the membranes. Thioperamide (3 μM) was used to determine nonspecific binding. Binding incubations were conducted for 30 minutes at 25° C. and terminated by addition of 2 mL of ice cold 50 mM Tris-HCl (pH 7.7) and filtration through 0.3% polyethylenimine-soaked Unifilter plates (Packard). These filters were washed 4 additional times with 2 mL of ice-cold 50 mM Tris-HCl and dried for 1 hour. Radioactivity was determined using liquid scintillation counting techniques. Results were analyzed by Hill transformation and Ki values were determined using the Cheng-Prusoff equation.
# T1 sequence (Q9QYN8 whole entry): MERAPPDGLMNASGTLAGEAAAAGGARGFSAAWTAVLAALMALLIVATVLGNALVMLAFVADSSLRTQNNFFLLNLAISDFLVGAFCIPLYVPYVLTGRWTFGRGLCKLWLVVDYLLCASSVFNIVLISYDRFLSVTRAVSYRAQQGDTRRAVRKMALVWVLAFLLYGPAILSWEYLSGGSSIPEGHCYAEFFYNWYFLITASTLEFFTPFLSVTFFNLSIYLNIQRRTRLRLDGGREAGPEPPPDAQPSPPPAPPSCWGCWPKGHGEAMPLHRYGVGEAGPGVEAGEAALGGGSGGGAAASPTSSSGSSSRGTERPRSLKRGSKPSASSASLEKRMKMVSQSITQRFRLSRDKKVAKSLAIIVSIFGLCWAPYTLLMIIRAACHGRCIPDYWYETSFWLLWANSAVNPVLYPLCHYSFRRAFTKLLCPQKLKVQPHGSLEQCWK
row,pKi,Compound
1,8.06,"CC(=O)c1ccc(OCCCN2CC[C@@H](NS(=O)(=O)c3cccn3-c3ncc(C(F)(F)F)cc3Cl)C2)cc1 [Example 78, N-{(3R)-1-[3-(4-acetylphenoxy)propyl]pyrrolidinyl}-1-[3-chloro-5-(trifluoromethyl)-2-pyridinyl]-1H-pyrrole-2-sulfonamide]"
2,8.10,"CC(=O)c1ccc(OCCCN2CC[C@@H](NS(=O)(=O)c3ccc(Oc4ncc(C(F)(F)F)cc4Cl)cc3)C2)cc1 [Example 79, N-{(3R)-1-[3-(4-acetylphenoxy)propyl]pyrrolidinyl}-4-{[3-chloro-5-(trifluoromethyl)-2-pyridinyl]oxy}benzenesulfonamide]"
3,8.00,"Cn1cnc(S(=O)(=O)N[C@@H]2CCN(CCCOc3ccc(C(=O)C4CC4)cc3)C2)c1 [Example 80, N-((3R)-1-{3-[4-(cyclopropylcarbonyl)phenoxy]propyl}pyrrolidinyl)-1-methyl-1H-imidazole-4-sulfonamide]"
4,8.30,"O=C(c1ccc(OCCCN2CC[C@@H](NS(=O)(=O)c3cccs3)C2)cc1)C1CC1 [Example 81, N-((3R)-1-{3-[4-(cyclopropylcarbonyl)phenoxy]propyl}pyrrolidinyl)-2-thiophenesulfonamide]"
5,7.68,"Cc1c(S(=O)(=O)N[C@@H]2CCN(CCCOc3ccc(C(=O)C4CC4)cc3)C2)sc2ccc(Cl)cc12 [Example 82, 5-chloro-N-((3R)-1-{3-[4-(cyclopropylcarbonyl)phenoxy]propyl}pyrrolidinyl)-3-methyl-1-benzothiophene-2-sulfonamide]"
6,7.64,"O=C(c1ccc(OCCCN2CC[C@@H](NS(=O)(=O)c3cc(C(F)(F)F)cc(C(F)(F)F)c3)C2)cc1)C1CC1 [Example 83, N-((3R)-1-{3-[4-(cyclopropylcarbonyl)phenoxy]propyl}pyrrolidinyl)-3,5-bis(trifluoromethyl)benzenesulfonamide]"
7,8.02,"O=C(c1ccc(OCCCN2CC[C@@H](NS(=O)(=O)c3cccc4cccnc34)C2)cc1)C1CC1 [Example 84, N-((3R)-1-{3-[4-(cyclopropylcarbonyl)phenoxy]propyl}pyrrolidinyl)-8-quinolinesulfonamide]"
8,8.74,"COc1ccc(S(=O)(=O)N[C@@H]2CCN(CCCOc3ccc(C(=O)C4CC4)cc3)C2)cc1OC [Example 86, N-((3R)-1-{3-[4-(cyclopropylcarbonyl)phenoxy]propyl}pyrrolidinyl)-3,4-dimethoxybenzenesulfonamide]"
9,8.31,"Cc1ccc(S(=O)(=O)N[C@@H]2CCN(CCCOc3ccc(C(=O)C4CC4)cc3)C2)cc1Cl [Example 87, 3-chloro-N-((3R)-1-{3-[4-(cyclopropylcarbonyl)phenoxy]propyl}pyrrolidinyl)-4-methylbenzenesulfonamide]"
10,8.17,"O=C(c1ccc(OCCCN2CC[C@@H](NS(=O)(=O)C=Cc3ccccc3)C2)cc1)C1CC1 [Example 88, N-((3R)-1-{3-[4-(cyclopropylcarbonyl)phenoxy]propyl}pyrrolidinyl)-2-phenylethenesulfonamide]"
11,7.96,"O=C(c1ccc(OCCCN2CC[C@@H](NS(=O)(=O)c3ccccc3OC(F)(F)F)C2)cc1)C1CC1 [Example 89, N-((3R)-1-{3-[4-(cyclopropylcarbonyl)phenoxy]propyl}pyrrolidinyl)-2-(trifluoromethoxy)benzenesulfonamide]"
12,7.96,"N#Cc1ccccc1S(=O)(=O)N[C@@H]1CCN(CCCOc2ccc(C(=O)C3CC3)cc2)C1 [Example 90, 2-cyano-N-((3R)-1-{3-[4-(cyclopropylcarbonyl)phenoxy]propyl}pyrrolidinyl)benzenesulfonamide]"
13,8.55,"Cc1cccc(S(=O)(=O)N[C@@H]2CCN(CCCOc3ccc(C(=O)C4CC4)cc3)C2)c1 [Example 91, N-((3R)-1-{3-[4-(cyclopropylcarbonyl)phenoxy]propyl}pyrrolidinyl)-3-methylbenzenesulfonamide]"
14,8.31,"O=C(c1ccc(OCCCN2CC[C@@H](NS(=O)(=O)c3ccc(C(F)(F)F)cc3)C2)cc1)C1CC1 [Example 92, N-((3R)-1-{3-[4-(cyclopropylcarbonyl)phenoxy]propyl}pyrrolidinyl)-4-(trifluoromethyl)benzenesulfonamide]"
15,8.49,"O=C(c1ccc(OCCCN2CC[C@@H](NS(=O)(=O)c3cccc(F)c3)C2)cc1)C1CC1 [Example 93, N-((3R)-1-{3-[4-(cyclopropylcarbonyl)phenoxy]propyl}pyrrolidinyl)-3-fluorobenzenesulfonamide]"
16,8.31,"O=C(c1ccc(OCCCN2CC[C@@H](NS(=O)(=O)c3ccc(OC(F)(F)F)cc3)C2)cc1)C1CC1 [Example 94, N-((3R)-1-{3-[4-(cyclopropylcarbonyl)phenoxy]propyl}pyrrolidinyl)-4-(trifluoromethoxy)benzenesulfonamide]"
17,8.34,"O=C(c1ccc(OCCCN2CC[C@@H](NS(=O)(=O)c3cccc4ccncc34)C2)cc1)C1CC1 [Example 95, N-((3R)-1-{3-[4-(cyclopropylcarbonyl)phenoxy]propyl}pyrrolidinyl)-8-isoquinolinesulfonamide]"
18,8.92,"CC(=O)Nc1ccc(S(=O)(=O)N[C@@H]2CCN(CCCOc3ccc(C(=O)C4CC4)cc3)C2)cc1Cl [Example 96, N-(2-chloro-4-{[((3R)-1-{3-[4-(cyclopropylcarbonyl)phenoxy]propyl}pyrrolidinyl)amino]sulfonyl}phenyl)acetamide]"
19,8.17,"O=C(c1ccc(OCCCN2CC[C@@H](NS(=O)(=O)c3ccc(Cl)c(Cl)c3)C2)cc1)C1CC1 [Example 97, 3,4-dichloro-N-((3R)-1-{3-[4-(cyclopropylcarbonyl)phenoxy]propyl}pyrrolidinyl)benzenesulfonamide]"
20,5.79,"CC(C)(C)OC(=O)N[C@H]1CCN(CCOc2ccc(-c3ccc(C#N)cc3)cc2)C1 [Example 100, tert-butyl (3S)-1-{2-[(4′-cyano[1,1′-biphenyl]-4-yl)oxy]ethyl}pyrrolidinylcarbamate]"
21,6.75,"COc1ccc(S(=O)(=O)N[C@@H]2CCN(CCCOc3ccc(-c4ccccn4)cc3)C2)cc1 [Example 101, 4-methoxy-N-((3R)-1-{3-[4-(2-pyridinyl)phenoxy]propyl}pyrrolidinyl)benzenesulfonamide]"
22,6.95,"CC(C)c1ccc(S(=O)(=O)N[C@@H]2CCN(CCCOc3ccc(-c4ccccn4)cc3)C2)cc1 [Example 102, 4-isopropyl-N-((3R)-1-{3-[4-(2-pyridinyl)phenoxy]propyl}pyrrolidinyl)benzenesulfonamide]"
23,6.71,"N#Cc1ccc(S(=O)(=O)N[C@@H]2CCN(CCCOc3ccc(-c4ccccn4)cc3)C2)cc1 [Example 103, 4-cyano-N-((3R)-1-{3-[4-(2-pyridinyl)phenoxy]propyl}pyrrolidinyl)benzenesulfonamide]"
24,6.76,"N#Cc1cccc(S(=O)(=O)N[C@@H]2CCN(CCCOc3ccc(-c4ccccn4)cc3)C2)c1 [Example 104, 3-cyano-N-((3R)-1-{3-[4-(2-pyridinyl)phenoxy]propyl}pyrrolidinyl)benzenesulfonamide]"

row,Compound,pKi
1,"CCCCOc1ccc(S(=O)(=O)N[C@@H]2CCN(CCCOc3ccc(C(=O)C4CC4)cc3)C2)cc1 [Example 85, 4-butoxy-N-((3R)-1-{3-[4-(cyclopropylcarbonyl)phenoxy]propyl}pyrrolidinyl)benzenesulfonamide]",8.28
